In paper PMC4689406, “(R)-NODAGA-PSMA: A Versatile Precursor for Radiometal Labeling and Nuclear Imaging of PSMA-Positive Tumors” (PLoS ONE, 2015):

Legend:
PSMA on LNCaP cells = biological target: T1, PSMA on LNCaP cells (Homo sapiens, UniProt Q04609); experiment: Saturation binding study on intact LNCaP cells; conditions: 120 min at 4°C
T1 construct: host or cells: LNCaP cells
Method: The next day, the medium was removed, the cells washed and incubated for 1 h at 37°C with fresh binding buffer (RPMI Medium 1640-GlutaMAX containing 1% FBS, 100 U/mL penicillin and 100 μg/mL streptomycin, 50 mM Hepes, 50 μg/mL bacitracin, 0.5% BSA). Afterwards, the plates were placed on ice for 30 min followed by incubation with increasing concentrations of either ^68/natGa-CC34, ^64/natCu-CC34, ^111/natIn-CC34 and ^111/[…]-617 (1-100 nM) in phosphate-buffered saline binding buffer pH 7.4. After the addition of the radioligands, the cells were incubated for 120 min at 4°C. […] The cells were washed twice with ice-cold PBS, followed by solubilization with 1 N NaOH and the cell-associated radioactivity was measured using a gamma-counter. Specific binding was plotted against the total molar concentration of the added radiotracer. […] For all the cell studies the values are normalized for 1x10^6 cells per well and all data are from two independent experiments with triplicates in each experiment.

[1] = Lipophilicity (LogD, pH 7.4), shake-flask method; type: physicochemical; conditions: octanol/PBS pH 7.4, shake-flask
Method: The lipophilicity (LogD, pH 7.4) was estimated by the “shake-flask” method (S3 Appendix).
The mixture was vortexed for 1 h to reach the equilibrium and then centrifuged (3000 rpm) for 10 min. From each phase, an aliquot (100 μL) was pipetted out and measured in a γ-counter. Each measurement was repeated five times. Care was taken to avoid cross-contamination between the phases. The partition coefficient was calculated as the average log ratio of the radioactivity in the organic fraction and the PBS fraction.

LNCaP xenografts = experiment: Biodistribution in LNCaP xenografts; type: in vivo, Balb/C nude mice; conditions: for Adrenal (biodistribution) / Blood (biodistribution) / Heart (biodistribution) / Intestine (biodistribution) / Kidney (biodistribution) / LNCaP-tumor (tumor uptake, biodistribution) / Lung (biodistribution) / Muscle (biodistribution) / Pancreas (biodistribution) / Spleen (biodistribution) / Stomach (biodistribution) / Bone (biodistribution) / Liver (biodistribution) / Tumor/blood / Tumor/kidney / Tumor/muscle: 10 pmol i.v., LNCaP mice; for Tumor/blood / Tumor/kidney / Tumor/muscle: ratio
Method: Female athymic Balb/C nude mice (age: 4–6 weeks, weight: 17–20 g) were purchased from Janvier, France. […] All animal experiments were conducted in strict accordance with the recommendations in the Guide for the Care and Use of Laboratory Animals of the National Institutes of Health. […]

[2] = 1 h p.i. blocked (co-injected 20 nmol PMPA)

T1 sequence (Q04609 whole entry): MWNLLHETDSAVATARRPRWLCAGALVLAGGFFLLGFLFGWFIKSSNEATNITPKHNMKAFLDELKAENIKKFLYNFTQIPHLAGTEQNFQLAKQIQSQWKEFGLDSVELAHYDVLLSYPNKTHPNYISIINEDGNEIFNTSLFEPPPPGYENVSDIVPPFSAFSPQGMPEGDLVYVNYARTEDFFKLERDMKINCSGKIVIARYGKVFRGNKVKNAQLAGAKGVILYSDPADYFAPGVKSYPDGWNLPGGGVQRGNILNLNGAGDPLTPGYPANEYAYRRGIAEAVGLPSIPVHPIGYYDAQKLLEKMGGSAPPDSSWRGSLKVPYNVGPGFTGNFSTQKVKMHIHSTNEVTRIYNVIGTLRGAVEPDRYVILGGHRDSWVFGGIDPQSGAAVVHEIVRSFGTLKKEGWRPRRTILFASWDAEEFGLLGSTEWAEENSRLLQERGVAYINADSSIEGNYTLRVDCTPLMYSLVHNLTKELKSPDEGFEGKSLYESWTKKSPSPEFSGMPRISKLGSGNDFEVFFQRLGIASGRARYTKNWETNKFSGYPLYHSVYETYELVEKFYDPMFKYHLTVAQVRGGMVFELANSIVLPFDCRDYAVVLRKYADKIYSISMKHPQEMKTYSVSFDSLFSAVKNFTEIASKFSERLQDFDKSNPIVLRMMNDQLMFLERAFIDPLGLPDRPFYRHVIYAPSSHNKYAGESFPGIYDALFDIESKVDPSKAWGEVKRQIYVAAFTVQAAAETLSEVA

O=C([O-])CN(CCN(CC(=O)[O-])Cc1cc(CCC(=O)NCCCCCC(=O)NCCCC[C@H](NC(=O)N[C@@H](CCC(=O)O)C(=O)O)C(=O)O)ccc1[O-])Cc1cc(CCC(=O)O)ccc1[O-].[68Ga+3].[OH3+] [^68Ga-HBED-CC-PSMA, HBED-CC-Ahx-Lys-NH-CO-NH-Glu]
Bmax (maximum number of binding sites) (PSMA on LNCaP cells): 0.41 ± 0.02 nM
Kd (PSMA on LNCaP cells; non-specific binding with 1 μM PMPA, read-out: Kd (dissociation constant)): 2.9 ± 0.6 nM
LogDoctanol/PBS [1]: -4.06 ± 0.10
Adrenal (biodistribution) (LNCaP xenografts; [2]): 1.1±0.5 %IA/g
Blood (biodistribution) (LNCaP xenografts; [2]): 0.4±0.04 %IA/g
Heart (biodistribution) (LNCaP xenografts; [2]): 0.2±0.06 %IA/g
Intestine (biodistribution) (LNCaP xenografts; [2]): 0.3±0.04 %IA/g
Kidney (biodistribution) (LNCaP xenografts; [2]): 11±3 %IA/g
LNCaP-tumor (tumor uptake, biodistribution) (LNCaP xenografts; [2]): 4.1±1.2 %IA/g
Lung (biodistribution) (LNCaP xenografts; [2]): 0.7±0.2 %IA/g
Muscle (biodistribution) (LNCaP xenografts; [2]): 0.2±0.1 %IA/g
Pancreas (biodistribution) (LNCaP xenografts; [2]): 0.3±0.04 %IA/g
Spleen (biodistribution) (LNCaP xenografts; [2]): 2.1±0.06 %IA/g
Stomach (biodistribution) (LNCaP xenografts; [2]): 0.3±0.01 %IA/g
Adrenal (biodistribution) (LNCaP xenografts; 1 h p.i.): 23±4 %IA/g
Blood (biodistribution) (LNCaP xenografts; 1 h p.i.): 0.2±0.04 %IA/g
Bone (biodistribution) (LNCaP xenografts; 1 h p.i.): 0.5±0.05 %IA/g
Heart (biodistribution) (LNCaP xenografts; 1 h p.i.): 0.6±0.06 %IA/g
Intestine (biodistribution) (LNCaP xenografts; 1 h p.i.): 0.5±0.1 %IA/g
Kidney (biodistribution) (LNCaP xenografts; 1 h p.i.): 208±4 %IA/g
LNCaP-tumor (tumor uptake, biodistribution) (LNCaP xenografts; 1 h p.i.): 15.8±1.4 %IA/g
Liver (biodistribution) (LNCaP xenografts; 1 h p.i.): 0.4±0.01 %IA/g
Lung (biodistribution) (LNCaP xenografts; 1 h p.i.): 3.5±0.2 %IA/g
Muscle (biodistribution) (LNCaP xenografts; 1 h p.i.): 0.6±0.06 %IA/g
Pancreas (biodistribution) (LNCaP xenografts; 1 h p.i.): 1.4±0.3 %IA/g
Spleen (biodistribution) (LNCaP xenografts; 1 h p.i.): 31±6 %IA/g
Stomach (biodistribution) (LNCaP xenografts; 1 h p.i.): 0.7±0.1 %IA/g
Adrenal (biodistribution) (LNCaP xenografts; 2 h p.i.): 23±0.8 %IA/g
Bone (biodistribution) (LNCaP xenografts; 2 h p.i.): 0.4±0.2 %IA/g
Heart (biodistribution) (LNCaP xenografts; 2 h p.i.): 0.6±0.02 %IA/g
Intestine (biodistribution) (LNCaP xenografts; 2 h p.i.): 0.5±0.2 %IA/g
Kidney (biodistribution) (LNCaP xenografts; 2 h p.i.): 211±29 %IA/g
LNCaP-tumor (tumor uptake, biodistribution) (LNCaP xenografts; 2 h p.i.): 14.8±2.2 %IA/g
Liver (biodistribution) (LNCaP xenografts; 2 h p.i.): 0.4±0.05 %IA/g
Lung (biodistribution) (LNCaP xenografts; 2 h p.i.): 3.2±0.2 %IA/g
Muscle (biodistribution) (LNCaP xenografts; 2 h p.i.): 0.6±0.2 %IA/g
Pancreas (biodistribution) (LNCaP xenografts; 2 h p.i.): 2±0.5 %IA/g
Spleen (biodistribution) (LNCaP xenografts; 2 h p.i.): 29±2 %IA/g
Stomach (biodistribution) (LNCaP xenografts; 2 h p.i.): 1±0.6 %IA/g
reduction of the tumor uptake (blocking) (LNCaP xenografts; LNCaP tumor, 1 h p.i., co-injection of 20 nmol PMPA): about 75%
Tumor/blood (LNCaP xenografts; 1 h p.i.): 68±4
Tumor/kidney (LNCaP xenografts; 1 h p.i.): 0.08±0.01
Tumor/muscle (LNCaP xenografts; 1 h p.i.): 29±6
Tumor/blood (LNCaP xenografts; 2 h p.i.): 83±15
Tumor/kidney (LNCaP xenografts; 2 h p.i.): 0.07±0.02
Tumor/muscle (LNCaP xenografts; 2 h p.i.): 24±3
